US20210330756A1, “Acetylation of Miro1” (University of South Carolina, priority 2020, published 2021)

System: sciatic nerve unmyelinated axons
Experiment: EM count of mitochondria in unmyelinated sciatic nerve axons after nerve injection
Format: in vivo, rat
Settings: 2 μl of 1.5 mM, EM 2 h after injection, vs vehicle
Protocol: To determine if TubA might also affect axonal mitochondria in vivo, we directly injected TubA into the sciatic nerve of adult rats at mid-thigh. […] As this could reflect stalling of mitochondria or increased numbers of anterogradely and/or retrogradely moving mitochondria, we performed in vivo imaging to visualize mitochondrial dynamics.
For in vivo inhibition of HDAC6, the sciatic nerve of anesthetized adult rats was injected twice at mid-thigh level with 2 μl of 1.5 mM TubA on the right and 2 μl of DMSO (vehicle control) on the left (isofluorane inhalation was used for anesthesia). Nerve injection sites were separated by 2 mm. […]
Vesicle trafficking was quantified using differential ImageJ Difference Tracker Plug-in (Andrews et al., 2010). 50-80-μm long unbranched axon segments at approximately the mid-region between growth cone and cell body were analyzed. […] The distance between the growth tip at end of the post-CALI sequence and the pre-CALI baseline was measured using LAS-X software. Movement of ≥0.5 μm toward the axon shaft was counted as retracted. Fluorescence emission of the Mito-KR post-CALI was analyzed using ImageJ. […] For axon shaft FRAP analyses, each 50-μm bleached ROI was divided into […], and the fluorescence intensity recovery was measured as described above. […] A minimum of 75 unmyelinated axons was analyzed for each nerve. […]

With `CN1CCc2c(c3ccccc3n2Cc2ccc(C(=O)NO)cc2)C1` [TubA, tubastatin] the “mitochondrial numbers in unmyelinated axons” value was “significantly increased mitochondrial numbers”.
